Data set [1] relates to Vancomycin-resistant Enterococcus (VRE). Particulars: VRE (n = 21), 90% of strains susceptible, Table 7. On the procedure:
(§1) MIC of cationic polymers and polypeptide were tested in accordance with the Clinical and Laboratory Standards Institute (CLSI) guidelines against a panel of antibiotic-susceptible/-resistant bacteria, yeasts and fungal strains. Bacterial and yeast strains were cultured on tryptic soy agar (TSA) and Sabaroud dextrose agar (SDA) plates (Neogen Corporation, MI, USA) overnight respectively. Inocula in Mueller-Hinton broth (MHB) for bacteria and SD broth for C. albicans (Beckton Dickinson, MD, USA) were prepared at 0.5 McFarland. The suspensions were then diluted to a final concentration of 10^5 CFU/ml in a 96-well microtitre plate (SPL Life Sciences Co., Ltd, Korea). […] The antimicrobial activities were compared with topical antiseptic agents, BAK and CHX. A similar protocol was used to determine the MIC of εPL against antibiotic-resistant pathogens. MIC of the polymers and polypeptides against Fusarium strains was determined in full strength RPMI-1640 buffer. Fungal spores were recovered from a 5-day old culture on a potato dextrose agar and diluted to a concentration of 10^5 spores/ml in 0.9% saline solution. A further 50-fold dilution was done in RPMI-1640 buffer and 100 μl of the inoculum was added to 96 well plates containing an equal volume of test peptides at 2-fold serial dilutions. 200 μl of inoculum without any additives and buffer alone served as positive and negative controls, respectively. The plate was then incubated at 30° C. for 48 h. The absorbance value was measured at 600 nm as before and the lowest concentration of the peptide which inhibited 90% growth was reported. All MIC determinations were performed in duplicates.
(§2) MICs of polymers/antibiotics were determined using the microdilution method in 96 well microtitre plates (SPL Life Sciences Co., Ltd, Korea), following the guidelines of Clinical and Laboratory Standards Institute (CLSI) document M100-S18. Briefly, polymers (1-512 μg/ml) or antibiotics were dissolved in appropriate media (Mueller Hinton broth, MHB for bacteria; Sabaroud's Dextrose (SD) broth for yeasts and RPMI buffer for Fusarium strains) and 100 μl of this was then mixed with an equal volume of microbial inoculum (OD600=˜0.08) in the same media and shaken in a closed incubator.

Data set [2] has as its system Carbapenam-resistant Enterobacter strains (CRE). Nature of the data set: microbe, parasite or virus in culture. On the procedure: as §1, §2
For data set [3], the system named is A. baumannii. Nature of the data set: microbe, parasite or virus in culture. On the procedure: as §1, §2
Data set [4] has as its system primary human dermal fibroblasts (HDFs). The data set can be described thus: MTS cytotoxicity assay. On the procedure: MTS ((3-(4,5-dimethylthiazol-2-yl)-5-(3-carboxymethoxyphenyl)-2-(4-sulfophenyl)-2H-tetrazolium)) assay and high content analysis (HCA) were performed to elucidate the effect of various polymers on metabolic activity and morphological parameters of cultured human dermal fibroblasts (hDF), respectively as described previously. The antineoplastic agent, nocodazole (5 μg/ml), served as the […] control whereas cells treated with PBS served as positive control. The average values from three independent triplicate experiments are reported. Cells were cultured in 96-well plates and scanned (16 randomly selected fields/well) using an automated microscope IN Cell Analyzer 2200 (GE Healthcare). The multi-parametric cytotoxicity bio-application module of the IN Cell Investigator software (GE Healthcare) was used in quantitative estimations and morphotypic analysis of acquired images, which were automatically converted into color-coded heatmaps using Spotrfire® software.
Human dermal fibroblast cells were seeded in 96-well plates (2×10^3 cells/well) and incubated for 24 h at 37° C. and 5% CO2. Cells were then treated with various concentrations of polymers or peptides (62.5 μg/ml-1 mg/ml. At the end of the treatment period (after 24 h), 20 or 50 μl of MTS tetrazolium solution was added into 96-well or 12-well plates and further incubated for 2 h at 37° C. Subsequently, the absorbance was measured at 490 nm using a microplate reader (Infinite M200 Pro, Tecan, Switzerland) and the relative cell viability was calculated. Each treatment was performed in two triplicates and reported.
The cytotoxicity of peptides and polymers were determined using CellTier 96® Aqueous One solution cell proliferation assay kit according to the manufacturer's instruction (Promega Corporation, Madison, Wis.). This assay evaluates mitochondrial function by measuring ability of viable cells to reduce MTS ((3-(4,5-dimethylthiazol-2-yl)-5-(3-carboxymethoxyphenyl)-2-(4-sulfophenyl)-2H-tetrazolium)) into a quantifiable […] formazan product. HDFs were seeded in 96-well plates (2×10^3 cells/well) and incubated for 24 h at 37° C. and 5% CO2. Cells were then treated with a concentrated stock solution of polymers (final concentration 62.5-2000 μg/ml in the well) or peptides (final concentration 4-1000 μg/ml in the well). After 24 h, 20 μl of MTS tetrazolium solution was added into 96-well well plates and further incubated for 2 h at 37° C. Subsequently, the absorbance was measured at 490 nm using a microplate reader (Infinite M200 Pro, Tecan, Switzerland) and the relative cell viability was calculated relative to untreated control (10 mM PBS, pH 7.0). Each treatment was performed in two triplicates and reported.

For data set [5], the system named is red blood cells. Particulars: cited from earlier work.
Data set [6] has as its system a number of micro-organisms. Particulars: cited from earlier work.
Data set [7] relates to K. pneumoniae. The data set can be described thus: microbe, parasite or virus in culture. Format: cell-based, Klebsiella pneumoniae. Particulars: Klebsiella pneumoniae; K. pneumoniae (n = 8), range over strains; read-out: MIC. On the procedure:
as §1, with “Korea). Polymers and polypeptides were added to the inoculum in 2-fold serial dilutions to give a range of concentrations from 2-1024 μg/ml.” for “Korea).”
as §2

Data set [8] concerns S. aureus. Nature of the data set: microbe, parasite or virus in culture. Format: cell-based, Staphylococcus aureus. To be noted: Staphylococcus aureus; S. aureus (n = 9); read-out: MIC. How it is done: as §1, with “Korea). Polymers and polypeptides were added to the inoculum in 2-fold serial dilutions to give a range of concentrations from 2-1024 μg/ml.” for “Korea).”
as §2

The test system of data set [9] is E. cloacae complex. Nature of the data set: microbe, parasite or virus in culture. Particulars: Enterobacter cloacae. How it is done: as §1, §2
In data set [10] the test system is E. coli. The data set can be described thus: microbe, parasite or virus in culture. Format: cell-based, Escherichia coli. Particulars: Escherichia coli; E. coli (n = 8), range over strains; read-out: MIC. How it is done: as §1, with “Korea). Polymers and polypeptides were added to the inoculum in 2-fold serial dilutions to give a range of concentrations from 2-1024 μg/ml.” for “Korea).”
as §2

[11] abbreviates: at 5 × 10^5 CFU/mL, reference 5.
The mark [12] stands for this setting: at 5 × 10^5 CFU/mL, reference 7.

Converted amounts (≈) assume the structure as drawn. Read-outs that look alike come from different tables or passages of the source. No end group written: not given here.

Consider `CC[C@H](C)[C@H](NC(=O)[C@H](CO)NC(=O)[C@H](CCCCN)NC(=O)[C@H](CC(C)C)NC(=O)[C@H](CCCCN)NC(=O)[C@@H](N)CC(C)C)C(=O)N[C@H](C(=O)N[C@@H](CO)C(=O)N[C@@H](Cc1c[nH]c2ccccc12)C(=O)N[C@@H](C)C(=O)N[C@@H](CCCCN)C(=O)N[C@@H](CCCCN)C(=O)N[C@H](C(=O)N[C@@H](CC(C)C)C(N)=O)C(C)C)C(C)C` [Mastoparan B, LKLKSIVSWAKKVL], for which the MIC90 entry in [1] is “(MIC90 = 4)^1 μg/ml”; in [3] (A. baumanii (n = 10), 90% of strains susceptible, Table 7), “(MIC90 = 2) μg/ml”. For the same molecule, the MIC50 entry in data set [2] (CRE (n = 19), 50% of strains susceptible, Table 7) is “(MIC50 = 4) μg/ml”. For the same molecule, the “Peptide concentration required to impart cytotoxic effect” value in data set [4] (MTS assay, primary human fibroblasts) is reported as “exceeded 62.5 μg/ml”. For the same molecule, the “Cytotoxicity for HDFs” value in [4] (Table 7) was 125 µg/mL.
On to “GIGAVLKVLTTGLCALISWIKRKRQQ (ends and bridges not checked)”, for which, in data set [5] (at 2.5 μM, reference 8), the Haemolytic activity is on record as 50% at 2.5 μM.
On to “GIGAVLKVLTTGLPALISWIKRKRQQ-NH2 [Unmodified parent peptide: GIGAVLKVLTTGLPALISWIKRKRQQ-NH2]”, for which, in [6] (setting [11]), the “MIC (range against a number of micro-organisms)” value is listed as 0.3 - 20 μM at. In addition, the Haemolytic activity in data set [5] (at <10 μM, reference 5) is 100% at <10 μM.
Turning to “CGIGAVLKVLTTGLPALISWIKRKRQQC [Modified peptide: CGIGAVLKVLTTGLPALISWIKRKRQQC (cyclised)] (also: cyclised, mode not given here)”, in [6] (setting [12]), the “MIC (range against a number of micro-organisms)” value is on record as 0.8 - 10 μM at. Further, the Haemolytic activity in [5] (at 10 μM, reference 7) is approximately 50% at 10 μM.
As for “GIGAVLKVLTTGLPALISWIKRKRQQ-NH2 [Modified peptide: GIGAVLKVLTTGLPALISWIKRKRQQ-NH2]”, the “MIC (range against a number of micro-organisms)” value in data set [6] (setting [11]) is listed as 0.8 - 12 μM at. The Haemolytic activity in data set [5] (at 50 μM, reference 5) is less than 25% at 50 μM.
As to “CGIGAVLKVLTTGLPALISWIKRKRQQC [Unmodified parent peptide: CGIGAVLKVLTTGLPALISWIKRKRQQC (lin]”, the “MIC (range against a number of micro-organisms)” value in [6] (setting [12]) was 2 - 32 μM at. Besides, the Haemolytic activity entry in data set [5] (at 10 μM, reference 7) is “Complete”.
As to `NC[C@H]1O[C@H](O[C@H]2[C@H](O)[C@@H](O[C@H]3O[C@H](CO)[C@@H](O)[C@H](N)[C@H]3O)[C@H](N)C[C@@H]2N)[C@H](N)C[C@@H]1O` [Tobramycin], the MIC lay within 195 to 100000 µg/mL (≈ 417 to 214000 µM) in data set [7]; 500 to 1000 µg/mL (≈ 1070 to 2140 µM) in data set [8]; 1560 to 100000 µg/mL (≈ 3340 to 214000 µM) in data set [9]; 800 to 50000 µg/mL (≈ 1710 to 107000 µM) in [2] (Enterobacter); 800 to 50000 µg/mL (≈ 1710 to 107000 µM) in data set [3] (Acinetobacter baumannii); 195 to 100000 µg/mL (≈ 417 to 214000 µM) in data set [10].
Turning to “GIGAVLKVLTTGLPALISWIKRKRQQ [listing 1 of 2 here]”, the MIC entry in [6] (reference 9, result in words) was “Loss of peptide”. Further, the Haemolytic activity entry in data set [5] (reference 9, result in words) is “Loss of peptide”.
Turning to “GIGAVLKVLTTGLPALISWIKRKRQQ [listing 2 of 2 here]”, the “MIC (range against a number of micro-organisms)” value in [6] (at 1 - 4 × 10^5 CFU/mL, reference 4) is 0.1 - 2 μM at 1 -. Further, the Haemolytic activity in [5] (at 2 μM, reference 4) is listed as 100% at 2 μM.
Turning to “GIGAVKKVLTTGKPALISWKKRKRQQ (not fully specified (residues 6, 13, 20); ends and bridges not checked; also: peptoid residue at 6, 13, 20 (identity not given here))”, the “MIC (range against a number of micro-organisms)” value in data set [6] (at 1 × 10^6 CFU/mL, reference 6) is recorded as 2 - 8 μM at. Besides, the Haemolytic activity in data set [5] (at 100 μM, reference 6) is recorded as less than 10% at 100 μM.

Source of the values: US11396531B2, “Antimicrobial peptides comprising epsilon lysine residues” (priority 2016, dated 2022).
